Data taken from patent publication US20190062277A1, “FARNESOID X RECEPTOR AGONISTS AND USES THEREOF” (Metacrine, Inc., priority 2015, published 2019).

Columns and labels:
[1] = target: T1, FXR (Homo sapiens, UniProt Q96RI1); assay: In Vitro FXR Assay (TK), luciferase reporter in transfected CV-1 cells; type: cell-based; parameters: expressed in transfected cells; host or cells: CV-1 cells; conditions: CV-1 cells transfected with hFXR, hRXR, TK-ECRE-luc; 18 hrs incubation; luminescence; maximum efficacy <25% of Fexaramine control also classified '+'
T1 sequence (Q96RI1 1-486): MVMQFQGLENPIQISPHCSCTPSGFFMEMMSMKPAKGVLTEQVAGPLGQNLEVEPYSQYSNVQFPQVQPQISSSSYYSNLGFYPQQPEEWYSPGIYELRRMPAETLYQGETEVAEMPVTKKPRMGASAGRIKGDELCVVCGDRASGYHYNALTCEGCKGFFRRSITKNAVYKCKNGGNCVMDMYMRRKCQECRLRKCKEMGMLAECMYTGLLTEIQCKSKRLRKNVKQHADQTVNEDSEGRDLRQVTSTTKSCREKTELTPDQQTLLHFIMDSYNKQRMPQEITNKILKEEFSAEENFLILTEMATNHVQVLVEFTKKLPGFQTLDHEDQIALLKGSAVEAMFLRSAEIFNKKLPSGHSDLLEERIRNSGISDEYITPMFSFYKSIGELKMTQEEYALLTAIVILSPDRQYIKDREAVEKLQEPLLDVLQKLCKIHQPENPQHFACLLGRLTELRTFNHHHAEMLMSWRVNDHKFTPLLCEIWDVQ
T1 sequence (P19793 1-462 partner): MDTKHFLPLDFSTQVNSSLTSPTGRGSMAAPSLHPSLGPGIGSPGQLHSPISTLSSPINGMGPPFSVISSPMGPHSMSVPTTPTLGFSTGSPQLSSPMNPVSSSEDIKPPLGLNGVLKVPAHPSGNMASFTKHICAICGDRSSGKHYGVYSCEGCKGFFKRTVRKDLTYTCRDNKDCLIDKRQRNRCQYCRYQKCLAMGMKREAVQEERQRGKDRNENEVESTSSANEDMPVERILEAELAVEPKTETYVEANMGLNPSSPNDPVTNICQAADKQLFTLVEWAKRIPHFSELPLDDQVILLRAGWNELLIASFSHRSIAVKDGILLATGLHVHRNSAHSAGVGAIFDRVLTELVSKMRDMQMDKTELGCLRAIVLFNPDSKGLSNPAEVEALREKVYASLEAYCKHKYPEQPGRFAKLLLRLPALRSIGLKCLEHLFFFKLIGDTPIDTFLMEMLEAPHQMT
Experimental: Example B-2: In Vitro FXR Assay (TK)
CV-1 cells were seeded at a density of 2,000,000 cells in a T175 flask with DMEM+10% charcoal double-stripped FBS and incubated at 37° C. in 5% CO2 for 18 h (0/N).
After 18 h of incubation, the medium in the T175 flask was changed with fresh DMEM+10% charcoal super-stripped serum. In a polypropylene tube, 2500 μL OptiMEM (Life Technologies, Cat #31985-062) was combined with expression plasmids for hFXR, hRXR, TK-ECRE-luc and pCMX-YFP. The tube was then briefly vortexed and incubated at room temperature for 5 minutes. Transfection reagent (X-tremeGENE HP from Roche, Cat #06 366 236 001) was added to the OptiMEM/plasmid mixture vortexed and incubated at room temperature for 20 minutes. Following incubation, the transfection reagent/DNA mixture complex was added to cells in the T175 flask and the cells were incubated at 37° C. in 5% CO2 for 18 h (O/N).
Compounds were serially diluted in DMSO and added to transfected CV-1 cells. The cells were then incubated for 18 hrs. The next day cells were lysed and examined for luminescence.

[2] = target: T1, FXR; assay: In Vitro FXR Assay (PGL3), luciferase reporter in transfected CV-1 cells; type: cell-based; parameters: plasmids XPD90Gal pCMXhFXRfl, pCMXhRXRfl+PGL3-ECRE*6-luc+CMX-YFP; expressed in transfected cells; host or cells: CV-1 cells; conditions: CV-1 cells transfected with hFXR, hRXR, PGL3-ECRE*6-luc; 18 hrs incubation; luminescence
Experimental: Example B-1: In Vitro FXR Assay (PGL3)
CV-1 cells were seeded at a density of 2,000,000 cells in a T175 flask with DMEM+10% charcoal double-stripped FBS and incubated at 37° C. in a 5% CO2 for 18 h (0/N).
After 18 h of incubation, the medium in the T175 flask was changed with fresh DMEM+10% charcoal super-stripped serum.
To prepare the transfection reaction mixture, the transfection reagent (X-tremeGENE HP from Roche, Cat #06 366 236 001) was added in to a 1.5 mL microcentrifuge tube labelled “A” at a ratio of 1:3 (DNA in μg: transfection reagent in μL). OptiMEM medium (Life Technologies, Cat #31985-062) was added accordingly to provide a total volume of 1 mL. The transfection reaction mixture was then briefly vortexed and incubated at room temperature for 5 minutes.
In a separate 1.5 mL microcentrifuge tube labelled “B”, 100 μL OptiMEM and plasmids XPD90Gal pCMXhFXRfl, pCMXhRXRfl+PGL3-ECRE*6-luc+CMX-YFP in the ratio 2 μg: 2 μg:18 μg:3 μg were added. This microcentrifuge tube “B” was then briefly vortexed and incubated at room temperature for 5 minutes.
The total volume in tube labelled “A” was then transferred in to tube labelled “B.” The mixture was then briefly vortexed and the transfection:DNA complex was then incubated for about 15-20 minutes at room temperature.
Following incubation, the transfection reagent/DNA mixture complex was then added to cells in the T175 flask and the cells were incubated at […] (0/N) at 37° C. in 5% CO2.
In a 96 well plate, a half logarithmic serial dilution was prepared. OptiMEM was used as the diluent. Using any of one of the compounds described herein, a compound stock solution of 10 mM was prepared. An initial 1:100 dilution was made into the first well for a final concentration of 100 μM. The final concentrations in the 96-well plate was prepared by using a multichannel pipette to transfer 5 μL of the diluted compound to 384-well plate in quadruplicate.
Cells in T175 flask were trypsinized and cells were resuspending in 40 mL phenol red free DMEM+10% charcoal super-stripped FBS. Typically, one T175 flask was sufficient to seed two 384 well plates. CV-1 cells were seeded at 45 μL cell suspension/well using a multi-channel pipet or a 384 multidrop dispenser. The cells were then incubated for 18 hrs, overnight.
After removing the plates from the incubator, the medium was flicked out of plate and 384 well plate was turned upside down onto paper towel. The remaining medium was gently tapped out. 15 μL lysis buffer was then added to each well using a multichannel pipet or a 384 well multi-drop dispenser. After incubation for 10 minutes at room temperature on shaker, 30 μL Luciferase buffer was added to each well. Luminescence counts were taken immediately using the Perkin Elmer Envision.
The ability of the compounds disclosed herein to […] FXR activity was quantified and the respective EC50 value was determined. Fex=fexaramine.

Structure (SMILES) | EC50 [1] [nM] | Cmpd/Fex (ratio of the EC50 for the test compound relative to the EC50 of the Fexaramine control) [2]
CN(C)c1ccc(N2CCC(CN(C(=O)C3CCCCC3)c3cccc(/C=C/C(=O)O)c3)CC2)cc1 [Compound 6, (E)-3-(3-(N-((1-(4-(Dimethylamino)phenyl)piperidin-4-yl)methyl)cyclohexanecarboxamido)phenyl)acrylic acid] | ≥ 10000 | + (‘+’ means Cmpd/Fex >100)
COc1ccc([C@H]2CC[C@H](CN(C(=O)C3CCCCC3)c3cccc(/C=C/C(=O)O)c3)CC2)cc1C [Compound 6.1, trans-(E)-3-(3-(N-((4-(4-Methoxy-3-methylphenyl)cyclohexyl)methyl)cyclohexanecarboxamido)phenyl)acrylic acid] | 1000 to 10000 | 
COC(=O)/C=C/c1cccc(N(C[C@H]2CC[C@H](c3ccc(OC)c(C)c3)CC2)C(=O)[C@H]2CC[C@H](O)CC2)c1 [Compound 14, trans-(E)-Methyl 3-(3-(trans-4-hydroxy-N-((4-(4-methoxy-3-methylphenyl)cyclohexyl)methyl)cyclohexanecarboxamido)phenyl)acrylate] | ≤ 1000 | 
COC(=O)/C=C/c1cccc(N(C[C@H]2CCN(c3ccc(N(C)C)cc3)C2)C(=O)C2CCCCC2)c1 [Compound 4, (S,E)-Methyl 3-(3-(N-((1-(4-(dimethylamino)phenyl)pyrrolidin-3-yl)methyl)cyclohexanecarboxamido)phenyl) acrylate] | 1000 to 10000 | ++ (‘++’ means Cmpd/Fex >10 & <100)
COC(=O)/C=C/c1cccc(N(C[C@H]2CC[C@@H](c3ccc(OC)c(C)c3)CC2)C(=O)C2CCCCC2)c1 [Compound 12, cis-(E)-Methyl 3-(3-(N-((4-(4-methoxy-3-methylphenyl)cyclohexyl)methyl)cyclohexanecarboxamido)phenyl)acrylate] | ≥ 10000 | 
COC(=O)/C=C/c1cccc(N(C[C@H]2CC[C@H](c3ccc(OC)c(C)c3)CC2)C(=O)CC(C)(C)C)c1 [Compound 9, trans-(E)-Methyl 3-(3-(N-((4-(4-methoxy-3-methylphenyl)cyclohexyl)methyl)-3,3-dimethylbutanamido)phenyl)acrylate] | ≤ 1000 | 

Second part, the molecule after the results:

EC50 [1] [nM] | Cmpd/Fex (ratio of the EC50 for the test compound relative to the EC50 of the Fexaramine control) [2] | Structure (SMILES)
≤ 1000 |  | COc1ccc([C@H]2CC[C@H](CN(C(=O)C3CCCCC3)c3cccc(/C=C/C(=O)OC(C)C)c3)CC2)cc1C [Compound 10, trans-(E)-Isopropyl 3-(3-(N-((4-(4-methoxy-3-methylphenyl)cyclohexyl)methyl)cyclohexanecarboxamido)phenyl)acrylate]
≤ 1000 | +++ (‘+++’ means Cmpd/Fex <10) | COC(=O)/C=C/c1cccc(N(CC2CCC(c3ccc(Cl)cc3)CC2)C(=O)C2CCCCC2)c1 (stereo not drawn) [Compound 7, (E)-Methyl 3-(3-(N-((4-(4-chlorophenyl)cyclohexyl)methyl)cyclohexanecarboxamido)phenyl)acrylate]
≥ 10000 |  | COC(=O)/C=C/c1cccc(N(CC2CN(c3ccc(N(C)C)cc3)C2)C(=O)C2CCCCC2)c1 [Compound 4.1, (E)-Methyl 3-(3-(N-((1-(4-(dimethylamino)phenyl)azetidin-3-yl)methyl)cyclohexanecarboxamido)phenyl) acrylate]
≤ 1000 |  | COc1ccc([C@H]2CC[C@H](CN(C(=O)CC(C)(C)C)c3cccc(/C=C/C(=O)OC(C)C)c3)CC2)cc1C [Compound 11, trans-(E)-Isopropyl 3-(3-(N-((4-(4-methoxy-3-methylphenyl)cyclohexyl)methyl)-3,3-dimethylbutanamido)phenyl)acrylate]
≥ 10000 | + (‘+’ means Cmpd/Fex >100) | COC(=O)/C=C/c1cccc(N(C[C@@H]2CCN(c3ccc(N(C)C)cc3)C2)C(=O)C2CCCCC2)c1 [Compound 3, (R,E)-Methyl 3-(3-(N-((1-(4-(dimethylamino)phenyl)pyrrolidin-3-yl)methyl)cyclohexanecarboxamido)phenyl) acrylate]
≤ 1000 | +++ (‘+++’ means Cmpd/Fex <10) | COC(=O)/C=C/c1cccc(N(CC2CCN(c3ccc(N(C)C)cc3)CC2)C(=O)C2CCCCC2)c1 [Compound 2, (E)-Methyl 3-(3-(N-((1-(4-(dimethylamino)phenyl)piperidin-4-yl)methyl)cyclohexanecarboxamido)phenyl)acrylate]
≤ 1000 |  | COC(=O)/C=C/c1cccc(N(C[C@H]2CC[C@H](c3ccc(OC)c(C)c3)CC2)C(=O)C2CCCCC2)c1 [Compound 8, trans-(E)-Methyl 3-(3-(N-((4-(4-methoxy-3-methylphenyl)cyclohexyl)methyl)cyclohexanecarboxamido)phenyl)acrylate]
≤ 1000 |  | COc1ccc([C@H]2CC[C@H](CN(c3cccc(/C=C/C(=O)OC(C)C)c3)C(=O)[C@H]3CC[C@H](O)CC3)CC2)cc1C [Compound 13, trans-(E)-Isopropyl 3-(3-(trans-4-hydroxy-N-((4-(4-methoxy-3-methylphenyl)cyclohexyl)methyl)cyclohexanecarboxamido)phenyl)acrylate]
1000 to 10000 | +++ (‘+++’ means Cmpd/Fex <10) | COC(=O)/C=C/c1cccc(N(Cc2ccc(-c3ccc(N(C)C)cc3)nc2)C(=O)C2CCCCC2)c1 [Compound 1, (E)-Methyl 3-(3-(N-((6-(4-(dimethylamino)phenyl)pyridin-3-yl)methyl)cyclohexanecarboxamido)phenyl)acrylate]
